Laboratory results reported in patent publication US9119837B2, “Use of sEH inhibitors as analgesics” (The Regents of the University of California, priority 2005, dated 2015).

Columns and labels:
pain or itch = test: Topical EETs in the methods of the invention (comparison of EET regioisomers); format: in vivo; details: topical administration
[1] = test system: LPS-induced thermal hyperalgesia; test: LPS-induced thermal hyperalgesia, hind paw withdrawal latency test (Hargreaves); format: in vivo, rat; details: for LPS-induced thermal hyperalgesia, percent thermal withdrawal latency (TWL): topical in vehicle cream (Vanicream), 50 mg/kg, LPS 10 μg in hind paw, FIG. 1; for LPS-induced thermal hyperalgesia, dose dependence of percent TWL: topical in vehicle cream, LPS 10 μg, FIG. 2
Description: The hyperalgesic response with the hind paw withdrawal test is considered to result from a combination of central and peripheral mechanisms (Kannan et al., “Endotoxin-induced local inflammation and hyperalgesia in rats mice, a new model for inflammatory pain,” Pharmacology 66:373-379 (1996)). We used the method of Hargreaves et al., “A new and sensitive method for measuring thermal nociception in cutaneous hyperalgesia”, Pain 32, 77-88 (1988) to quantify the pain response of rats treated with two sEH inhibitors and EETs. Pain was quantified using the hind paw withdrawal latency test. Male Sprague-Dawley rats (Charles River Laboratories, Inc., Wilmington, Mass.) weighing 250-300 g, were used. Animals were individually housed at UC Davis Animal Resource Facility under standard conditions with free access to food and water, and maintained for at least 1 week before the experiments. Each rat was used only once. All the experiments were performed during the daytime between 8.00 and 13.00 h (during the first phase of the light period of the diurnal cycle). Rats were first trained to the experimental chamber in three separate sessions. In the day of the experiments rats' basal response was measured and then they were treated with a neutral cream or compound containing formulated cream preceding an injection with 10 ug of endotoxin (Lipopolysaccharide, “LPS”) or capsaicin in the right hind paw to induce pain response. Pain response was then measured at 30, 60, 120 and 240 minutes post LPS or capsaicin injection. sEHIs were formulated by dissolving them in ethanol and mixing with cream in a ratio of 1:9. Eight animals per group were used. To assess thermal nociceptive responses, a commercially available device modeled after that described by Hargreaves et al., supra, was employed. This device consists of a glass surface upon which the rats are placed individually in Plexiglass cubicles (9×22×25 cm). The glass surface temperature is maintained at either 30.1° C. by a feedback-controlled, under-glass, forced-air heating system. The heating system is driven by a thermocouple attached to the bottom surface of the glass plate. The thermal nociceptive stimulus originates from a focused projection bulb mounted in a stimulus tower that is manually manipulated in a two-dimensional axis to permit the stimulus to be delivered to hind paw of each test subject. A timer is automatically actuated with the light source, and response latency is defined as the time required for the paw to show an abrupt withdrawal. Paw withdrawal is detected by a photodiode motion sensor mounted on the stimulus tower that stops the timer and terminates the stimulus. In all cases, a cut-off of 20 seconds is employed to avoid tissue injury. […]

[2] = test system: LPS-elicited mechanical allodynia; test: LPS-elicited mechanical allodynia, von Frey filaments; format: in vivo, rat; details: topical in vehicle cream; 50 mg/kg; LPS 10 μg; FIG. 3
Protocol: For the quantification of mechanical allodynia, a set of von Frey filaments with different diameters corresponding to different quantities of force applied were employed. The baseline responses of animals were first determined and than LPS was injected in the hind paw. Responses were measured 1 hr and 2 hrs after LPS injection. Eight animals per group were used. Rats' paws were stimulated with filaments of increasing diameter three times. The diameter of filaments that rats withdraw their paws were recorded.

[3] = test system: carrageenan-elicited thermal hyperalgesia; test: Carrageenan-elicited thermal hyperalgesia, paw withdrawal latency; format: in vivo, rat; details: carrageenan injected into ipsilateral paw at time 0; AUDA-be administered at 20 hours post-exposure; FIG. 6
Protocol: Animals were exposed to carrageenan at time 0 by injection into ipsilateral paw, the contralateral paw was left untreated. AUDA-be was administered at 20 hours post-exposure to the carrageenan. Filled diamonds are the withdrawal tests of the treated paw. Filled squares are the tests of the untreated paw. To assess thermal nociceptive responses, a commercially available device modeled after that described by Hargreaves et al., supra, was employed. This device consists of a glass surface upon which the rats are placed individually in Plexiglass cubicles (9×22×25 cm). The glass surface temperature is maintained at either 30.1° C. by a feedback-controlled, under-glass, forced-air heating system. The heating system is driven by a thermocouple attached to the bottom surface of the glass plate. The thermal nociceptive stimulus originates from a focused projection bulb mounted in a stimulus tower that is manually manipulated in a two-dimensional axis to permit the stimulus to be delivered to hind paw of each test subject. A timer is automatically actuated with the light source, and response latency is defined as the time required for the paw to show an abrupt withdrawal. Paw withdrawal is detected by a photodiode motion sensor mounted on the stimulus tower that stops the timer and terminates the stimulus. In all cases, a cut-off of 20 seconds is employed to avoid tissue injury. […]

sEH = target: T1, sEH (Homo sapiens, UniProt P34913); test: Inhibition of sEH activity; format: biochemical
T1 sequence (P34913 1-555): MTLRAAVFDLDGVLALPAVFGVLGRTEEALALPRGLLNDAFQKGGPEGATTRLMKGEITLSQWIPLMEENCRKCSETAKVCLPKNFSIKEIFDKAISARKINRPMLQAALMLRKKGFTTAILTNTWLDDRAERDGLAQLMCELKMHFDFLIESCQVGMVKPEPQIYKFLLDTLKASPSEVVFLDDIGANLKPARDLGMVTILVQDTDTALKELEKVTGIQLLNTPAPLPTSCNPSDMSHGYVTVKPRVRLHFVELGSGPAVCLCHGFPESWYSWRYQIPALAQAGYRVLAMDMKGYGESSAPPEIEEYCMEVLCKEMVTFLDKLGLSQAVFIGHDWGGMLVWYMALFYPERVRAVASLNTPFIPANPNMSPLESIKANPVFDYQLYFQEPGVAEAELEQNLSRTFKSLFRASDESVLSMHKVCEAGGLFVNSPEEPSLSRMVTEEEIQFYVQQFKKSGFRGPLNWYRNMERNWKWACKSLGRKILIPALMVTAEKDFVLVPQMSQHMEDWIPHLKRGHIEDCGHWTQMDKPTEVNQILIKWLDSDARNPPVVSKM
Description: Any of a number of standard assays for determining epoxide hydrolase activity can be used to determine inhibition of sEH. For example, suitable assays are described in Gill, et al., Anal Biochem 131, 273-282 (1983); and Borhan, et al., Analytical Biochemistry 231, 188-200 (1995)). Suitable in vitro assays are described in Zeldin et al., J Biol. Chem. 268:6402-6407 (1993). Suitable in vivo assays are described in Zeldin et al., Arch Biochem Biophys 330:87-96 (1996). […]
The enzyme also can be detected based on the binding of specific ligands to the catalytic site which either immobilize the enzyme or label it with a probe such as dansyl, fluoracein, luciferase, green fluorescent protein or other reagent. […] The enzyme also can be detected based on the generation of fluorescent products following the hydrolysis of the epoxide. […]

Metabolic stability = format: in vitro ADME

SMILES | Effectiveness compared with other EETs in the methods of the invention (pain or itch) | LPS-induced thermal hyperalgesia, percent thermal withdrawal latency (TWL) [1] | LPS-induced thermal hyperalgesia, dose dependence of percent TWL [1] | LPS-elicited mechanical allodynia, percent mechanical withdrawal threshold (MWT) [2] | Carrageenan-elicited thermal hyperalgesia, thermal withdrawal latency of paw (PWL) [3] | Activity as an inhibitor of sEH (sEH) | Metabolic stability (Metabolic stability)
CCCCC/C=C\C[C@H]1O[C@H]1C/C=C\C/C=C\CCCC(=O)O [11,12-EET] | ineffective or less effective than other EETs |  |  |  |  |  | 
CCCCOC(=O)CCCCCCCCCCCNC(=O)NC12CC3CC(CC(C3)C1)C2 [AUDA-be, 12-(3-Adamantan-1-yl-ureido)dodecanoic acid butyl ester] |  | block | block LPS-induced thermal hyperalgesia in a dose dependent way | block LPS-elicited mechanical allodynia | blocks carrageenan-elicited thermal hyperalgesia |  | 
CCOCCOCCOCCCCCNC(=O)NC12CC3CC(CC(C3)C1)C2 [compound 950, Adamantan-1-yl-3-{5-[2-(2-ethoxyethoxy)ethoxy]pentyl}urea] |  | block | block LPS-induced thermal hyperalgesia in a dose dependent way | block LPS-elicited mechanical allodynia |  |  | 
CCCCCCCCCCCCNC(=O)NC12CC3CC(CC(C3)C1)C2 [ADU, N-Adamantyl-N′-dodecyl urea] |  |  |  |  |  | particularly high activity on sEH | metabolically stable
